Results taken from US12156880B2, “Heterocyclic RIP1 kinase inhibitors” (Rigel Pharmaceuticals, Inc., priority 2021, dated 2024).

Key:
RIPK1 = biological target: T1, RIPK1 (Homo sapiens, UniProt Q13546); experiment: RIPK1 ADP-Glo biochemical kinase assay; details: read-out: RIPK1 ADP-Glo Kinase (IC50)
T1 sequence (Q13546 1-671): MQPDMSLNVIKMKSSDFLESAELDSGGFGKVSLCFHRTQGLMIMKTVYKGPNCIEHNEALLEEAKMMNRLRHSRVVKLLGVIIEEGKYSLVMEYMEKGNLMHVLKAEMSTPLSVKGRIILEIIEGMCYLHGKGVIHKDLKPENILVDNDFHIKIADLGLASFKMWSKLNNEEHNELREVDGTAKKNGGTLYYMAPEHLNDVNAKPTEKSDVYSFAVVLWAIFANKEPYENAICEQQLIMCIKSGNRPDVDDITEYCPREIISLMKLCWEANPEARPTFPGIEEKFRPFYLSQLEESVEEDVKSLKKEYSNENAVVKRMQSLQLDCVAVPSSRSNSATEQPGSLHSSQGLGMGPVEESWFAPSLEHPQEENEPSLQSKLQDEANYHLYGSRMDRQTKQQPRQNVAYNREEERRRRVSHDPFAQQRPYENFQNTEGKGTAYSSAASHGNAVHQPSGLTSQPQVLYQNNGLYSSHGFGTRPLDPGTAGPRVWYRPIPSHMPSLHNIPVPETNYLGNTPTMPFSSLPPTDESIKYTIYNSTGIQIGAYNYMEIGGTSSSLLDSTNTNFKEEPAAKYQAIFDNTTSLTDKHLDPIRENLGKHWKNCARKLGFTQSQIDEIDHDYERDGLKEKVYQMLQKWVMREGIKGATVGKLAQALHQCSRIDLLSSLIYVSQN
Summary of the method: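 RIPK1 at 31 ng/well in Tris pH 7.4 buffer with MgCl2, BSA, DTT and MnCl2, reacted with compounds (duplicate) for 30 min at 30 °C. ADP formed detected by ADP-Glo: 40 min stop/depletion, then 30 min detection reagent at room temperature; luminescence read.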

L929 cells = experiment: L929 cell necroptosis assay (TNFa + zVAD, CellTiter-Glo recovery); type: cell-based, murine; details: Mus musculus, L929, 18 h, TNFa 2 ng/mL + zVAD-fmk, read-out: L929-CTG-recovery, L929, TNFa + zVAD (IC50)
Description: In this example, U937 and L929 cells were exposed to compounds of the present disclosure and a cell necroptosis assay was conducted to evaluate the compounds' activity against human RIP1 and murine RIP1.
U937 and L929 cells were obtained from the American Type Culture Collection (Manassas, VA, USA). Both cells were maintained in logarithmic growth phase in complete RPMI 1640 media (Sigma, ST Louis, MO, USA) supplemented with 10% fetal bovine serum (Sigma, ST Louis, MO, USA) at 37° C. with 5% CO2. For necroptosis assay, L929 cells were plated for 18 h in 100 μL/well medium at 10K cells/well in Costar 96-well black clear-bottom plates (Fisher Scientific, Hampton, NH, USA); U937 cells were plated on the day of the assay in 50 μL/well medium containing 60 uM zVAD-fmk (Lonza, Basel, Switzerland) at 50K cells/well. Medium from L929 cells were removed from the 96-well plates and replaced with 50 μL/well new medium containing 40 uM zVAD-fmk. Each compound of the present disclosure evaluated in this example was serially diluted in DMSO from 2.5 mM in 4-fold dilutions, and then diluted 1:125 in complete medium. 50 μL/well 2× of the compound was then added to the cells in the plates. The cells were pre-incubated with the compound for 1 hour at 37° C. with 5% CO2 and before addition of 10 μL/well 11×TNFa (Peprotech, Rocky Hill, NJ, USA) to give a final concentration of 2 ng/mL for TNFa. The relative amount of necroptosis cells was determined by luminescent using a Wallac Victor2 Luminometer (PerkinElmer, Waltham, MA, USA) and a CellTiter-Glo® Luminescent Cell Viability Reagent Assay (Promega, Madison, WI, USA) added per manufacturer instructions after 18 hours of TNFa stimulation at 37° C. with 5% CO2. This example establishes that embodiments of the compounds described herein have unexpectedly potent activity against human RIP1 and murine RIP1, which allows their assessment in in vivo mouse models of disease.

U937 cells = experiment: U937 cell necroptosis assay (TNFa + zVAD, CellTiter-Glo recovery); type: cell-based; details: Homo sapiens, U-937, 18 h, TNFa 2 ng/mL + zVAD-fmk, read-out: U937 Zvad TNF CTG Recovery, U937, TNFa + zVAD (IC50)
Summary of the method: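 Human U937 (50K/well, 60 uM zVAD-fmk medium, plated same day) or murine L929 (10K/well, plated 18 h, then 40 uM zVAD-fmk medium) were grown in RPMI with 10% FBS. Both were pretreated with compound for 1 h at 37 °C before TNFa at 2 ng/mL final. Viability was read by CellTiter-Glo luminescence after 18 h.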

| SMILES | IC50 (RIPK1) | IC50 (L929 cells) | IC50 (U937 cells) |
| --- | --- | --- | --- |
| CN1C(=O)[C@@H](NC(=O)n2cc(Cc3cccc(F)n3)cn2)COc2ccc(C#CC(C)(C)CO)cc21 [I-37, (S)-4-((6-Fluoropyridin-2-yl)methyl)-N-(7-(4-hydroxy-3,3-dimethylbut-1-yn-1-yl)-5-methyl-4-oxo-2,3,4,5-tetrahydrobenzo[b][1,4]oxazepin-3-yl)-1H-pyrazole-1-carboxamide] | 16.2 nM | 697 nM | 4 nM |
| CN1C(=O)[C@@H](NC(=O)n2cc(Cc3cccnc3F)cn2)COc2ccc(Br)cc21 [I-42, (S)—N-(7-Bromo-5-methyl-4-oxo-2,3,4,5-tetrahydrobenzo[b][1,4]oxazepin-3-yl)-4-((2-fluoropyridin-3-yl)methyl)-1H-pyrazole-1-carboxamide] | 18.2 nM | 28400 nM | 58.6 nM |
| CN1C(=O)[C@@H](NC(=O)n2cc(Cc3cccnc3F)cn2)COc2ccc(C#CC(C)(C)O)cc21 [I-43, (S)-4-((2-Fluoropyridin-3-yl)methyl)-N-(7-(3-hydroxy-3-methylbut-1-yn-1-yl)-5-methyl-4-oxo-2,3,4,5-tetrahydrobenzo[b][1,4]oxazepin-3-yl)-1H-pyrazole-1-carboxamide] | 17.7 nM | 2520 nM | 17.9 nM |
| CN1C(=O)[C@@H](NC(=O)n2cc(Cc3cccnc3F)cn2)COc2ccc(C#CC3(O)CCOCC3)cc21 [I-44, (S)-4-((2-Fluoropyridin-3-yl)methyl)-N-(7-((4-hydroxytetrahydro-2H-pyran-4-yl)ethynyl)-5-methyl-4-oxo-2,3,4,5-tetrahydrobenzo[b][1,4]oxazepin-3-yl)-1H-pyrazole-1-carboxamide] | 62.9 nM | 4120 nM | 18 nM |
| CN1C(=O)[C@@H](NC(=O)n2cc(Cc3cccnc3F)cn2)COc2ccc(C#CC3CCOCC3)cc21 [I-45, (S)-4-((2-Fluoropyridin-3-yl)methyl)-N-(5-methyl-4-oxo-7-((tetrahydro-2H-pyran-4-yl)ethynyl)-2,3,4,5-tetrahydrobenzo[b][1,4]oxazepin-3-yl)-1H-pyrazole-1-carboxamide] | 45 nM | 512 nM | 5.2 nM |
| CN1C(=O)[C@@H](NC(=O)n2cc(Cc3cccnc3F)cn2)COc2ccc(C#CC(C)(C)CO)cc21 [I-46, (S)-4-((2-Fluoropyridin-3-yl)methyl)-N-(7-(4-hydroxy-3,3-dimethylbut-1-yn-1-yl)-5-methyl-4-oxo-2,3,4,5-tetrahydrobenzo[b][1,4]oxazepin-3-yl)-1H-pyrazole-1-carboxamide] | 37.5 nM | 2370 nM | 9.7 nM |
| CN1C(=O)[C@@H](NC(=O)n2cc(Cc3cccnc3F)cn2)COc2ccc(C#CC3(O)COC3)cc21 [I-47, (S)-4-((2-Fluoropyridin-3-yl)methyl)-N-(7-((3-hydroxyoxetan-3-yl)ethynyl)-5-methyl-4-oxo-2,3,4,5-tetrahydrobenzo[b][1,4]oxazepin-3-yl)-1H-pyrazole-1-carboxamide] | 17.5 nM | 2900 nM | 40.8 nM |
| CN1C(=O)[C@@H](NC(=O)n2cc(Cc3cccnc3F)cn2)COc2ccc(C#CC3(O)CCC3)cc21 [I-48, (S)-4-((2-Fluoropyridin-3-yl)methyl)-N-(7-((1-hydroxycyclobutyl)ethynyl)-5-methyl-4-oxo-2,3,4,5-tetrahydrobenzo[b][1,4]oxazepin-3-yl)-1H-pyrazole-1-carboxamide] | 646 nM | 1470 nM | 24.9 nM |
| CN1C(=O)[C@@H](NC(=O)n2cc(Cc3ccc(F)nc3F)cn2)COc2ccc(C#CC(C)(C)O)cc21 [I-50, (S)-4-((2,6-Difluoropyridin-3-yl)methyl)-N-(7-(3-hydroxy-3-methylbut-1-yn-1-yl)-5-methyl-4-oxo-2,3,4,5-tetrahydrobenzo[b][1,4]oxazepin-3-yl)-1H-pyrazole-1-carboxamide] | 181 nM | 17600 nM | 62.3 nM |
| CN1C(=O)[C@@H](NC(=O)c2cc(Cc3cccnc3F)ccn2)COc2ccc(C#CC3CCOCC3)cc21 [I-51, (S)-4-((2-fluoropyridin-3-yl)methyl)-N-(5-methyl-4-oxo-7-((tetrahydro-2H-pyran-4-yl)ethynyl)-2,3,4,5-tetrahydrobenzo[b][1,4]oxazepin-3-yl)picolinamide] | 18.3 nM | 9.6 nM | 0.4 nM |
| CN1C(=O)[C@@H](NC(=O)c2cc(Cc3cccnc3F)ccn2)COc2ccc(C#CC3COC3)cc21 [I-52, (S)-4-((2-fluoropyridin-3-yl)methyl)-N-(5-methyl-7-(oxetan-3-ylethynyl)-4-oxo-2,3,4,5-tetrahydrobenzo[b][1,4]oxazepin-3-yl)picolinamide] | 16.5 nM | 657 nM | 2.2 nM |
| CN1C(=O)[C@@H](NC(=O)c2cc(Cc3cccc(F)n3)ccn2)COc2ccc(C#CC3CCOCC3)cc21 [I-53, (S)-4-((6-fluoropyridin-2-yl)methyl)-N-(5-methyl-4-oxo-7-((tetrahydro-2H-pyran-4-yl)ethynyl)-2,3,4,5-tetrahydrobenzo[b][1,4]oxazepin-3-yl)picolinamide] | 35.1 nM | 114 nM | 3 nM |
| CN1C(=O)[C@@H](NC(=O)c2cc(Oc3cccnc3F)ccn2)COc2ccc(C#CC(C)(C)O)cc21 [I-54, (S)-4-((2-fluoropyridin-3-yl)oxy)-N-(7-(3-hydroxy-3-methylbut-1-yn-1-yl)-5-methyl-4-oxo-2,3,4,5-tetrahydrobenzo[b][1,4]oxazepin-3-yl)picolinamide] | 16.8 nM | 573 nM | 7.1 nM |
| CN1C(=O)[C@@H](NC(=O)c2cc(Oc3cccnc3F)ccn2)COc2ccc(C#CC3COC3)cc21 [I-55, (S)-4-((2-fluoropyridin-3-yl)oxy)-N-(5-methyl-7-(oxetan-3-ylethynyl)-4-oxo-2,3,4,5-tetrahydrobenzo[b][1,4]oxazepin-3-yl)picolinamide] | 14.3 nM | 155 nM | 1.2 nM |
| CN1C(=O)[C@@H](NC(=O)c2cc(Oc3cccnc3F)ccn2)COc2ccc(C#CC3(O)COC3)cc21 [I-56, (S)-4-((2-fluoropyridin-3-yl)oxy)-N-(7-((3-hydroxyoxetan-3-yl)ethynyl)-5-methyl-4-oxo-2,3,4,5-tetrahydrobenzo[b][1,4]oxazepin-3-yl)picolinamide] | 10.5 nM | 275 nM | 2.9 nM |
| CN1C(=O)[C@@H](NC(=O)c2cc(Oc3cccnc3)ccn2)COc2ccc(C#CC3(O)COC3)cc21 [I-57, (S)—N-(7-((3-hydroxyoxetan-3-yl)ethynyl)-5-methyl-4-oxo-2,3,4,5-tetrahydrobenzo[b][1,4]oxazepin-3-yl)-4-(pyridin-3-yloxy)picolinamide] | 18.1 nM | 437 nM | 1.6 nM |
| CN1C(=O)[C@@H](NC(=O)c2cc(Oc3cccnc3)ccn2)COc2ccc(C#CC(C)(C)O)cc21 [I-58, (S)—N-(7-(3-hydroxy-3-methylbut-1-yn-1-yl)-5-methyl-4-oxo-2,3,4,5-tetrahydrobenzo[b][1,4]oxazepin-3-yl)-4-(pyridin-3-yloxy)picolinamide] | 20.2 nM | 1180 nM | 3.8 nM |
